What follows are compounds tested on Myotonic Dystrophy 1 affected patient fibroblasts (Coriell GM04602; 1600 CTG repeats) (assay: DM1 foci reduction assay (CAG10-Cy3 FISH, average foci per nucleus)). Conditions: Homo sapiens, Fibroblast, 48 h, read-out: Foci Reduction in Fibroblast EC50, 48 h (nM).
Format: cell-based
Protocol: DM1 foci reduction assay methods: Myotonic Dystrophy 1 affected patient fibroblasts (Coriell GM04602; 1600 CTG repeats) and wild type fibroblasts (Coriell GM07492; control line) were cultured separately in Gibco DMEM (1×)+4.5 g/L D-Glucose+L-Glutamine+110 mg/L Sodium Pyruvate, supplemented with 10% FBS and 1× Pen/Strep. Cells were maintained in incubator at 37° C. and 5% CO2 with media refresh every 48-72 hours.
At 90-95% confluency, both cell lines were harvested using Trypl-E then pelleted at 500×g for 5 minutes and were resuspended in media. DM1 fibroblasts were seeded in Agilent 96 well black plates at a density of 5,000 cells/well in 200 μL media; 8 wells were reserved for control fibroblasts. Plates were returned to incubator for 24 hours at 37° C. and 5% CO2.
Compounds were diluted from 10 mM stock to 1 mM in DMSO, then diluted once more to 6 μM (2× concentration) in media. Media was removed from all plates and cells were replenished with 100 μL media. Cells were treated in 8-point dose response, 1:3 fold dilution, 3 μM top dose via addition of 100 μL of 6 μM (2× concentration) compound to the 100 μL media with cells. Plates were returned to incubator for 48-hour time-course experiment at 37° C. and 5% CO2.
Following treatment, compounds were removed, and plates were washed with PBS, then cells were fixed in 75 μL 4% PFA solution for 20 minutes at room temperature. Plates were washed twice with PBS and twice with cold 70% ethanol before permeabilization with 250 μL cold 70% ethanol for 24-72 hours at −20° C.
After permeabilization, plates were washed once with a 30% formamide and 2×SSC buffer and rehydrated in that buffer for 15 minutes at room temperature. Cells were incubated overnight at 37° C. in 75 μL of a hybridization solution containing 30% formamide, 2×SSC, 25 mg/mL dextran sulfate, 2.5 mg/mL BSA, 0.2 μg/mL Herring sperm DNA, 2 mM vanadyl-ribonucleoside complex, and 5 nM CAG10-Cy3 probe.
Plates were washed once with 30% formamide in 2×SSC buffer, then twice with the buffer for 30 minutes at 37° C., 300 RPM in an incubating plate shaker. Cells were stained with 75 μL of 2.5 μg/mL DAPI in PBS for 5 minutes at room temperature. Plates were then washed twice with PBS and stored in 250 μL PBS. Plates were sealed with adhesive foil and wiped down with 70% ethanol.
Cells were imaged on a Cytation5 with a 20× objective sampling from 4 areas of each well. Nuclei were captured under DAPI channel and foci under RFP channel. Plates were analyzed on an average foci per nucleus per well basis.

Compound | EC50
CCN(CC)CCCC[C@H](NC(=O)COCCOCCNC(=O)c1ccc(C(C)(C)C)cc1)C(=O)N[C@@H](CO)C(=O)NCCOCCOCCOCCOCCOCCNC(=O)CCNC(=O)c1nc(NC(=O)c2cc(NC(=O)CCNC(=O)c3nc(NC(=O)CCCNC(=O)c4cc(NC(=O)c5nc(NC(=O)CCNC(=O)c6cc(NC(=O)c7nccn7C)cn6C)cn5C)cn4C)cn3C)cn2C)cn1C [Compound 66] | 100 to 500 nM
CC(=O)N[C@@H](CCCCN(C)C1CC2CCC1C2)C(=O)N[C@@H](CO)C(=O)NCCOCCOCCOCCOCCOCCNC(=O)CCNC(=O)c1nc(NC(=O)c2cc(NC(=O)CCNC(=O)c3nc(NC(=O)CCCNC(=O)c4cc(NC(=O)c5nc(NC(=O)CCNC(=O)c6cc(NC(=O)c7nccn7C)cn6C)cn5C)cn4C)cn3C)cn2C)cn1C (stereo partly drawn) [Compound 67] | 100 to 500 nM
CN(CCCC[C@H](NC(=O)COCCOCCNC(=O)c1ccc(C(C)(C)C)cc1)C(=O)N[C@@H](CO)C(=O)NCCOCCOCCOCCOCCOCCNC(=O)CCNC(=O)c1nc(NC(=O)c2cc(NC(=O)CCNC(=O)c3nc(NC(=O)CCCNC(=O)c4cc(NC(=O)c5nc(NC(=O)CCNC(=O)c6cc(NC(=O)c7nccn7C)cn6C)cn5C)cn4C)cn3C)cn2C)cn1C)C1CC2CCC1C2 (stereo partly drawn) [Compound 68] | 100 to 500 nM
CCN(CC)CCCC[C@H](NC(=O)[C@H](CC(C)C)NC(=O)[C@H](C)NC(=O)[C@H](Cc1ccccc1)NC(=O)c1ccc(C(C)(C)C)cc1)C(=O)N[C@@H](CO)C(=O)NCCNC(=O)CCNC(=O)c1nc(NC(=O)c2cc(NC(=O)CCNC(=O)c3nc(NC(=O)CCCNC(=O)c4cc(NC(=O)c5nc(NC(=O)CCNC(=O)c6cc(NC(=O)c7nccn7C)cn6C)cn5C)cn4C)cn3C)cn2C)cn1C [Compound 70] | < 100 nM
CCN(CC)CCCC[C@H](NC(=O)[C@H](CC(C)C)NC(=O)[C@H](C)NC(=O)[C@H](Cc1ccccc1)NC(=O)c1ccc(C(C)(C)C)cc1)C(=O)N[C@@H](CO)C(=O)NCCOCCOCCOCCOCCNC(=O)CCNC(=O)c1nc(NC(=O)c2cc(NC(=O)CCNC(=O)c3nc(NC(=O)CCCNC(=O)c4cc(NC(=O)c5nc(NC(=O)CCNC(=O)c6cc(NC(=O)c7nccn7C)cn6C)cn5C)cn4C)cn3C)cn2C)cn1C [Compound 72] | < 100 nM
CCN(CC)CCCC[C@H](NC(=O)[C@H](CC(C)C)NC(=O)[C@H](C)NC(=O)[C@H](Cc1ccccc1)NC(=O)c1ccc(C(C)(C)C)cc1)C(=O)N[C@@H](CO)C(=O)NCCOCCOCCOCCNC(=O)CCNC(=O)c1nc(NC(=O)c2cc(NC(=O)CCNC(=O)c3nc(NC(=O)CCCNC(=O)c4cc(NC(=O)c5nc(NC(=O)CCNC(=O)c6cc(NC(=O)c7nccn7C)cn6C)cn5C)cn4C)cn3C)cn2C)cn1C [Compound 73] | < 100 nM
CCN(CC)CCCC[C@H](NC(=O)[C@H](CC(C)C)NC(=O)[C@H](C)NC(=O)[C@H](Cc1ccccc1)NC(=O)c1ccc(C(C)(C)C)cc1)C(=O)N[C@@H](CO)C(=O)NCCOCCOCCN(C)C(=O)CCNC(=O)c1nc(NC(=O)c2cc(NC(=O)CCNC(=O)c3nc(NC(=O)CCCNC(=O)c4cc(NC(=O)c5nc(NC(=O)CCNC(=O)c6cc(NC(=O)c7nccn7C)cn6C)cn5C)cn4C)cn3C)cn2C)cn1C [Compound 74] | < 100 nM
CCN(CC)CCCC[C@H](NC(=O)[C@H](CC(C)C)NC(=O)[C@H](C)NC(=O)[C@H](Cc1ccccc1)NC(=O)c1ccc(C(C)(C)C)cc1)C(=O)N[C@@H](CO)C(=O)N(C)CCOCCOCCNC(=O)CCNC(=O)c1nc(NC(=O)c2cc(NC(=O)CCNC(=O)c3nc(NC(=O)CCCNC(=O)c4cc(NC(=O)c5nc(NC(=O)CCNC(=O)c6cc(NC(=O)c7nccn7C)cn6C)cn5C)cn4C)cn3C)cn2C)cn1C [Compound 75] | < 100 nM
CCN(CC)CCCC[C@H](NC(=O)[C@H](CC(C)C)NC(=O)[C@H](C)NC(=O)[C@H](Cc1ccccc1)NC(=O)c1ccc(C(C)(C)C)cc1)C(=O)N[C@@H](CO)C(=O)N(C)CCOCCOCCN(C)C(=O)CCNC(=O)c1nc(NC(=O)c2cc(NC(=O)CCNC(=O)c3nc(NC(=O)CCCNC(=O)c4cc(NC(=O)c5nc(NC(=O)CCNC(=O)c6cc(NC(=O)c7nccn7C)cn6C)cn5C)cn4C)cn3C)cn2C)cn1C [Compound 76] | < 100 nM

Source: patent US20240166693A1, “METHODS AND COMPOUNDS FOR MODULATING MYOTONIC DYSTROPY 1” (Design Therapeutics, Inc., priority 2020, published 2024)
